In patent US20250214945A1, “THIOBENZIMIDAZOLE DERIVATIVE OR PHARMACEUTICALLY ACCEPTABLE SALT THEREOF, AND USE THEREOF” (KOREA UNIVERSITY RESEARCH AND BUSINESS FOUNDATION, priority 2022, published 2025) one finds IC50 data, which are given here for three molecules.

In test [1] the test system is Human triple-negative breast cancer (TNBC) cell line MDA-MB-231. Kind of test: MTS cell viability assay, MDA-MB-231 breast cancer cell line. Particulars: 0 to 10 μM, FIG. 3, one range stated for both cell lines and three compounds. The class given is cell-based. The method, then: (§1) Human triple-negative breast cancer (TNBC) cell line MDA-MB-231 (Cell seeding numbers: 1(M231)×10^4 cells/wells (confluency ≥25%) and HER2 positive breast cancer (HER2^+ BC) cell line JIMT-1 (Cell seeding numbers: 1.2(JIMT)×10^4 cells/wells (confluency ≥25%)) were used in the experiments.
(§2) The above mentioned cell lines were cultured under a 5% CO2 environment at 37° C. in Dulbecco's modified Eagle's medium (DMEM) containing 10% fetal bovine serum (FBS), streptomycin-penicillin (100 U/mL) and Fungizone ([…]), respectively.
(§3) The human breast cancer cell lines MDA-MB-231 and JIMT-1 were treated with thiobenzimidazole derivatives of Chemical Formula 1-1 to Chemical Formula 1-17 at concentrations of 0, 0.5, 1 and 5 μM for 72 hours, respectively, and then cell viability was measured by MTS assay. The MTS assay was performed by attaching cells to 96-well plates for 24 hours, treating them with the above mentioned thiobenzimidazole derivatives for 72 hours, and then developing them with MTS (3-(4,5-dimethylthiazol-2-yl)-5-(3-carboxymethoxyphenyl)-2-(4-sulfophenyl)-2H-tetrazolium) for 4 hours, and measuring the absorbance at 490 nm using a Spectramax Plus384 microplate analyzer.
(§4) MDA-MB-231 and JIMT-1 cell lines were treated with the thiobenzimidazole derivatives of the present disclosure (Chemical Formula 1-10, 1-11 and 1-15) at concentrations of 0. 0.01, 0.05, 0.1, 0.1, 0.25, 0.5, 1, 5 and 10 μM, respectively, and then the cell viability and corresponding IC50 values were determined. The preparation and experimentation methods for the cell lines were the same as those used in the Example 1 experiments.
For orientation: Tetrazolium assays rely on reduction of a dye to a coloured formazan, in cell work by metabolically active cells.

In test [2] the test system is HER2 positive breast cancer (HER2+ BC) cell line JIMT-1. Kind of test: MTS cell viability assay, JIMT-1 breast cancer cell line. The class given is cell-based. Particulars: Homo sapiens, 0 to 10 μM, FIG. 3, one range stated for both cell lines and three compounds. As for the experimental part: as §1, §2, §3, §4

The term IC50 denotes the concentration at which inhibition is half-maximal. Consider `COC(=O)Nc1nc2cc(Sc3ccc(N4CCS(=O)(=O)CC4)cc3)ccc2[nH]1` [1-10], for which the IC50 in test [1] and in test [2] was 0.15 to 0.35 µM each time.

Regarding `COC(=O)Nc1nc2cc(Sc3ccc(N4CC(C)N(S(C)(=O)=O)C(C)C4)cc3)ccc2[nH]1` (stereo not drawn) [1-11], the IC50 in test [1] and in test [2] was 0.15 to 0.35 µM in each case.

As to `COC(=O)Nc1nc2cc(Sc3ccc(N4CCC(O)CC4)cc3)ccc2[nH]1` [1-15], the IC50 in test [1] and in test [2] was 0.15 to 0.35 µM in each case.
